This note sets out measurements from ChEMBL document CHEMBL1152504, “Design and synthesis of membrane fusion inhibitors against the feline immunodeficiency virus” (Bioorg Med Chem, 2009).

Calls of active or inactive are those of the source. No cut-off for these calls is given here. A value given as a limit tells only on which side of the number the result lay.

Experiment [1] can be described thus: Inhibition of Feline immunodeficiency virus Petaluma envelope glycoprotein gp40 assessed as inhibition of HR1-HR2 interaction after 1.5 hrs by ELISA. In general terms: An ELISA detects its analyte on a solid surface through an enzyme-linked reagent.
Experiment [2] in a line: Inhibition of Feline immunodeficiency virus Shizuoka envelope glycoprotein gp40 assessed as inhibition of HR1-HR2 interaction after 1.5 hrs by ELISA.
Experiment [3] in a line: Inhibition of Feline immunodeficiency virus UK8 envelope glycoprotein gp40 assessed as inhibition of HR1-HR2 interaction after 1.5 hrs by ELISA.
Experiment [4] is described as follows: Inhibition of Feline immunodeficiency virus Sendai-1 envelope glycoprotein gp40 assessed as inhibition of HR1-HR2 interaction after 1.5 hrs by ELISA.
The next experiment relates to MT4. Kind of experiment: Inhibition of Feline immunodeficiency virus envelope glycoprotein 40-mediated cell fusion between virus-transfected feline thymic lymphoma 3201 cells and human MT4 cells at 10 uM after 7 days. It counts as cell-based.

As for “H-WEEWDKKIEEYTKKIEELIKKSEEQQKKNEEELKK-OH”, the concentration for half-maximal inhibition (IC50) in experiment [1] was above 10 µM.
Turning to “H-LEEWYKKTEELQKKFEEIIKKIEENNKKGEEGLKK-OH”, the IC50 was 0.0197 µM in experiment [2], 0.0128 µM in experiment [1], 0.00338 µM in experiment [3] and 0.00253 µM in experiment [4].
Take “H-NEELGKKYEETKKKQEEFYKKIEEIEKKNEEVKKKLEELQKK-OH”: the IC50 in experiment [1] stood at 0.169 µM.
For the molecule “H-LGEWYNQTKGLQQKFYEIIMDIEQNSVQGKKGIQQ-OH”, the IC50 in experiment [2] is above 10 µM; in experiment [1] it was 2.4 µM; in experiment [3], above 10 µM; in experiment [4] it was 0.437 µM.
For the molecule “H-LGEWYNQTKELQQKFYEIIMNIEQNNVQVKKGLQQ-OH”, the IC50 was found to be 6.31 µM in experiment [2], 0.708 µM in experiment [1], 0.724 µM in experiment [3] and 0.646 µM in experiment [4].
Taken in the same sequence, the figures for “H-LRDWYNNTQQLQKKFYEIIYDIEQNNVQGKQGLQQ-OH” were 2.51 µM, 0.195 µM, 0.182 µM and 0.0372 µM.
Take “H-GEETLKKWEEQTKKLEEKFKKIEENIKKNEEQVKKGEEQLKK-OH”: the IC50 in experiment [1] was above 10 µM.
Regarding `CC[C@H](C)[C@H](NC(=O)CNC(=O)[C@H](CCC(=O)O)NC(=O)[C@H](CCC(=O)O)NC(=O)CNC(=O)[C@H](CCCCN)NC(=O)[C@H](CCCCN)NC(=O)[C@H](CC(N)=O)NC(=O)[C@H](CC(N)=O)NC(=O)[C@H](CCC(=O)O)NC(=O)[C@H](CCC(=O)O)NC(=O)[C@@H](NC(=O)[C@H](CCCCN)NC(=O)[C@H](CCCCN)NC(=O)[C@@H](NC(=O)[C@@H](NC(=O)[C@H](CCC(=O)O)NC(=O)[C@H](CCC(=O)O)NC(=O)[C@H](Cc1ccccc1)NC(=O)[C@H](CCCCN)NC(=O)[C@H](CCCCN)NC(=O)[C@H](CCC(N)=O)NC(=O)[C@H](CC(C)C)NC(=O)[C@H](CCC(=O)O)NC(=O)[C@H](CCC(=O)O)NC(=O)[C@@H](NC(=O)[C@H](CCCCN)NC(=O)[C@H](CCCCN)NC(=O)[C@H](Cc1ccc(O)cc1)NC(=O)[C@H](Cc1c[nH]c2ccccc12)NC(=O)[C@H](CCC(=O)O)NC(=O)[C@H](CCC(=O)O)NC(=O)[C@@H](N)CC(C)C)[C@@H](C)O)[C@@H](C)CC)[C@@H](C)CC)[C@@H](C)CC)C(=O)N[C@@H](CCCCN)C(=O)N[C@@H](CCCCN)C(=O)O`, the IC50 was 0.0785 µM in experiment [2], 0.0516 µM in experiment [1], 0.00933 µM in experiment [3] and 0.00887 µM in experiment [4]. In addition, the outcome in the experiment on MT4 was Active.
Take “H-LGEWYNQTKDLQQKFYEIIMDIEQNNVQGKKGIQQ-OH”: the IC50 in experiment [2] turned out to be 6.31 µM; in experiment [1], 1.26 µM; in experiment [3], 0.513 µM; in experiment [4] it was 0.183 µM. Further, the result in the experiment on MT4 was Active.
As for “H-LEEWYKKTEELQKKFEEIIKKIEENSKKGEEGIKK-OH”, the IC50 in experiment [2] is 0.203 µM; in experiment [1], 0.2 µM; in experiment [3] it was 0.443 µM; in experiment [4], 0.0424 µM.
Taken in the same sequence, the figures for “H-LEEWYKKTEELQKKFEEIIKKIEENNKKVEEGLKK-OH” were 0.115 µM, 0.0166 µM, 0.00539 µM and 0.0226 µM.

The term IC50 denotes the concentration that inhibits the measured activity by half.
